The results in this text go back to patent publication US11572398B2, “GLP-1 derivatives and uses thereof” (Novo Nordisk A/S, priority 2014, dated 2023).

Where two headings read alike, the source gives them in different places. Non-standard residues stand in square brackets, D forms with d. Residues, ends and D or L forms follow the SMILES beside them. *: point of attachment. X1 = O=C(O)CCCCCCCCCCCCCCCCCCC(=O)NC[C@H]1CC[C@H](C(=O)N[C@@H](CCC(=O)NCCOCCOCC(=O)NCCOCCOCC(=O)NCCOCCOCC(=O)NCCOCCOCC(=O)NCCOCCOCC(=O)NCCOCCOCC(=O)NCCCN(CCCNC(=O)COCCOCCNC(=O)COCCOCCNC(=O)COCCOCCNC(=O)COCCOCCNC(=O)COCCOCCNC(=O)COCCOCCNC(=O)CC[C@H](NC(=O)[C@H]2CC[C@H](CNC(=O)CCCCCCCCCCCCCCCCCCC(=O)O)CC2)C(=O)O)CC(=O)*)C(=O)O)CC1; Aib = CC(C)(N)C(=O)O

In data set [1] the target is T1, human GLP-1 receptor (Homo sapiens, UniProt P43220).
T1 construct: expressed in transfected cells; host or cells: BHK cells (parent line BHKTS13), clone FCW467-12A; membrane preparation
Briefly: In vitro potency: CRE luciferase reporter gene assay in BHK cells expressing the human GLP-1 receptor. It counts as cell-based. To be noted: whole cell reporter gene assay, BHK cells, human GLP-1 receptor; average of at least two replicates; read-out: EC50. In a few lines: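 Whole-cell assay in stably transfected BHK cells carrying CRE-driven firefly luciferase, 5×10^3 cells/well, in assay buffer with 2% ovalbumin and 0.2% Pluronic F-68. Compound working solutions were 0.2 μM.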

Data set [2] addresses T1, human GLP-1 receptor. Description: GLP-1 receptor binding: competitive binding assay (125I-GLP-1, SPA) on isolated membranes at low and high HSA.
Data set [3] in a line: in vivo. Particulars: male, Göttingen, minipig, iv.
Experimental: (§1) The purpose of this study is to determine the protraction in vivo of the GLP-1 derivatives after i.v. administration to minipigs, i.e. the prolongation of their time in the body and thereby their time of action. This is done in a pharmacokinetic (PK) study, where the terminal half-life of the derivative in question is determined. By terminal half-life is meant the time it takes to halve a certain plasma concentration in the terminal elimination phase.
(§2) Male Göttingen minipigs were obtained from Ellegaard Göttingen Minipigs (Dalmose, Denmark) approximately 7-14 months of age and weighing approximately 16-35 kg were used in the studies. The minipigs were housed either individually (pigs with permanent catheters) or in a group and fed restrictedly once or twice daily with SDS minipig diet (Special Diets Services, Essex, UK).
(§3) After at least 2 weeks of acclimatisation two permanent central venous catheters were implanted in vena cava caudalis or cranialis in each animal. The animals were allowed 1 week recovery after the surgery, and were then used for repeated pharmacokinetic studies with a suitable wash-out period between successive GLP-1 derivative dosings.
(§4) Blood samples (for example 0.8 ml) were collected in EDTA buffer (8 mM) and then centrifuged at 4° C. and 1942G for 10 minutes.
(§5) Plasma was pipetted into Micronic tubes on dry ice, and kept at −20° C. until analysed for plasma concentration of the respective GLP-1 compound using LOCI. Individual plasma concentration-time profiles were analyzed by a non-compartmental pharmacokinetic method in Phoenix v. 6.2 (Pharsight Inc., Mountain View, Calif., USA), or other relevant software for PK analysis, and the resulting terminal half-lives (harmonic mean) determined.
Data set [4] is described as follows: Pharmacokinetic study in minipigs (i.v.). To be noted: male, Göttingen, minipig, in vivo, iv.
Experimental: as §1, §2, §3, §4, §5
Setting [5] is: high HSA (2.0% final assay concentration), read-out: High HSA IC50.
[6] abbreviates: Low HSA IC50, low HSA (max. 0.001% final assay concentration).

T1 sequence (P43220 24-463): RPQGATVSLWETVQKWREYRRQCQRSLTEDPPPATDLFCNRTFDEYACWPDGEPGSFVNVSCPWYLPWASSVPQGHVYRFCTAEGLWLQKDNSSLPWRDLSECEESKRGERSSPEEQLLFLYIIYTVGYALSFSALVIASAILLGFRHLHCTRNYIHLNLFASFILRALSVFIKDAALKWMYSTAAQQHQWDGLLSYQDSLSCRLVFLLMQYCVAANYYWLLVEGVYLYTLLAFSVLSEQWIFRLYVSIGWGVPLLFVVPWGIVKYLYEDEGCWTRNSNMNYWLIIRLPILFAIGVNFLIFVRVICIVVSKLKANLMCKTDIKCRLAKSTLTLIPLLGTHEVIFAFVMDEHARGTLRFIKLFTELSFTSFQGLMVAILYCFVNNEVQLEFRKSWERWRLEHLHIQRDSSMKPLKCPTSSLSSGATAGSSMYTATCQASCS

For the molecule `CC[C@H](C)[C@H](NC(=O)[C@H](Cc1ccccc1)NC(=O)[C@H](CCC(=O)O)NC(=O)[C@H](CCCNC(=N)N)NC(=O)[C@H](C)NC(=O)[C@H](C)NC(=O)[C@H](CCC(N)=O)NC(=O)[C@H](CCC(=O)O)NC(=O)[C@H](CCC(=O)O)NC(=O)[C@H](CC(C)C)NC(=O)[C@H](Cc1ccc(O)cc1)NC(=O)[C@H](CO)NC(=O)[C@H](CO)NC(=O)[C@@H](NC(=O)[C@H](CC(=O)O)NC(=O)[C@H](CO)NC(=O)[C@@H](NC(=O)[C@H](Cc1ccccc1)NC(=O)[C@@H](NC(=O)CNC(=O)[C@H](CCC(=O)O)NC(=O)C(C)(C)NC(=O)[C@@H](N)Cc1c[nH]cn1)[C@@H](C)O)[C@@H](C)O)C(C)C)C(=O)N[C@@H](C)C(=O)N[C@@H](Cc1c[nH]c2ccccc12)C(=O)N[C@@H](CC(C)C)C(=O)N[C@H](C(=O)N[C@@H](CCCNC(=N)N)C(=O)NCC(=O)N[C@@H](CCCNC(=N)N)C(=O)N[C@@H](CCCCNC(=O)CN(CCCNC(=O)CCOCCOCCOCCOCCOCCOCCOCCOCCOCCOCCOCCOCCOCCOCCOCCOCCOCCOCCOCCOCCOCCOCCOCCOCCNC(=O)[C@@H](N)CCCCNC(=O)[C@@H](N)CCCCNC(=O)CCCCCCCCCCCCCCCCCCC(=O)O)CCCNC(=O)CCOCCOCCOCCOCCOCCOCCOCCOCCOCCOCCOCCOCCOCCOCCOCCOCCOCCOCCOCCOCCOCCOCCOCCOCCNC(=O)[C@@H](N)CCCCNC(=O)[C@@H](N)CCCCNC(=O)CCCCCCCCCCCCCCCCCCC(=O)O)C(=O)O)C(C)C` [Example 6], the 50% effective concentration (EC50) in data set [1] was 0.0072 nM. Besides, the IC50 in data set [2] (setting [5]) is 9 nM; in data set [2] (low HSA (max. 0.001% final assay concentration), read-out: Low HSA IC50), 0.05 nM. The molecule also gave a half-life in data set [3] of 143 h.

In the case of `CC[C@H](C)[C@H](NC(=O)[C@H](Cc1ccccc1)NC(=O)[C@H](CCC(=O)O)NC(=O)[C@H](CCCNC(=N)N)NC(=O)[C@H](C)NC(=O)[C@H](C)NC(=O)[C@H](CCC(N)=O)NC(=O)[C@H](CCC(=O)O)NC(=O)[C@H](CCC(=O)O)NC(=O)[C@H](CC(C)C)NC(=O)[C@H](Cc1ccc(O)cc1)NC(=O)[C@H](CO)NC(=O)[C@H](CO)NC(=O)[C@@H](NC(=O)[C@H](CC(=O)O)NC(=O)[C@H](CO)NC(=O)[C@@H](NC(=O)[C@H](Cc1ccccc1)NC(=O)[C@@H](NC(=O)CNC(=O)[C@H](CCC(=O)O)NC(=O)C(C)(C)NC(=O)[C@@H](N)Cc1c[nH]cn1)[C@@H](C)O)[C@@H](C)O)C(C)C)C(=O)N[C@@H](C)C(=O)N[C@@H](Cc1c[nH]c2ccccc12)C(=O)N[C@@H](CC(C)C)C(=O)N[C@H](C(=O)N[C@@H](CCCNC(=N)N)C(=O)NCC(=O)N[C@@H](CCCNC(=N)N)C(=O)N1CCC[C@H]1C(=O)N[C@@H](CCCCNC(=O)CN(CCCNC(=O)COCCOCCNC(=O)COCCOCCNC(=O)COCCOCCNC(=O)COCCOCCNC(=O)COCCOCCNC(=O)COCCOCCNC(=O)CC[C@H](NC(=O)[C@H]1CC[C@H](CNC(=O)CCCCCCCCCCCCCCCCCCC(=O)O)CC1)C(=O)O)CCCNC(=O)COCCOCCNC(=O)COCCOCCNC(=O)COCCOCCNC(=O)COCCOCCNC(=O)COCCOCCNC(=O)COCCOCCNC(=O)CC[C@H](NC(=O)[C@H]1CC[C@H](CNC(=O)CCCCCCCCCCCCCCCCCCC(=O)O)CC1)C(=O)O)C(=O)O)C(C)C` [Example 10] (H-H[Aib]EGTFTSDVSSYLEEQAAREFIAWLVRGRPK(X1)-OH; N-terminus and C-terminus assumed), the half-life in data set [4] (2 nmol/kg) is 151 h.

In the case of `CC[C@H](C)[C@H](NC(=O)[C@H](Cc1ccccc1)NC(=O)[C@H](CCC(=O)O)NC(=O)[C@H](CCCNC(=N)N)NC(=O)[C@H](C)NC(=O)[C@H](C)NC(=O)[C@H](CCC(N)=O)NC(=O)[C@H](CCC(=O)O)NC(=O)[C@H](CCC(=O)O)NC(=O)[C@H](CC(C)C)NC(=O)[C@H](Cc1ccc(O)cc1)NC(=O)[C@H](CO)NC(=O)[C@H](CO)NC(=O)[C@@H](NC(=O)[C@H](CC(=O)O)NC(=O)[C@H](CO)NC(=O)[C@@H](NC(=O)[C@H](Cc1ccccc1)NC(=O)[C@@H](NC(=O)CNC(=O)[C@H](CCC(=O)O)NC(=O)C(C)(C)NC(=O)[C@@H](N)Cc1c[nH]cn1)[C@@H](C)O)[C@@H](C)O)C(C)C)C(=O)N[C@@H](C)C(=O)N[C@@H](Cc1c[nH]c2ccccc12)C(=O)N[C@@H](CC(C)C)C(=O)N[C@H](C(=O)N[C@@H](CCCNC(=N)N)C(=O)NCC(=O)N[C@@H](CCCNC(=N)N)C(=O)N[C@@H](CCCCNC(=O)CN(CCCNC(=O)COCCOCCNC(=O)COCCOCCNC(=O)COCCOCCNC(=O)COCCOCCNC(=O)COCCOCCNC(=O)COCCOCCNC(=O)CC[C@H](NC(=O)[C@H]1CC[C@H](CNC(=O)CCCCCCCCCCCCCCCCCCC(=O)O)CC1)C(=O)O)CCCNC(=O)COCCOCCNC(=O)COCCOCCNC(=O)COCCOCCNC(=O)COCCOCCNC(=O)COCCOCCNC(=O)COCCOCCNC(=O)CC[C@H](NC(=O)[C@H]1CC[C@H](CNC(=O)CCCCCCCCCCCCCCCCCCC(=O)O)CC1)C(=O)O)C(=O)O)C(C)C` [Example 3], the half-maximal effective concentration (EC50) in data set [1] was 0.02 nM. In addition, the half-inhibitory concentration (IC50) was found to be 0.41 nM in data set [2] (setting [6]) and 22 nM in data set [2] (setting [5]). The half-life in data set [4] (5 nmol/kg) is 159 h.

`CC[C@H](C)[C@H](NC(=O)[C@H](Cc1ccccc1)NC(=O)[C@H](CCC(=O)O)NC(=O)[C@H](CCCNC(=N)N)NC(=O)[C@H](C)NC(=O)[C@H](C)NC(=O)[C@H](CCC(N)=O)NC(=O)[C@H](CCC(=O)O)NC(=O)[C@H](CCC(=O)O)NC(=O)[C@H](CC(C)C)NC(=O)[C@H](Cc1ccc(O)cc1)NC(=O)[C@H](CO)NC(=O)[C@H](CO)NC(=O)[C@@H](NC(=O)[C@H](CC(=O)O)NC(=O)[C@H](CO)NC(=O)[C@@H](NC(=O)[C@H](Cc1ccccc1)NC(=O)[C@@H](NC(=O)CNC(=O)[C@H](CCC(=O)O)NC(=O)C(C)(C)NC(=O)[C@@H](N)Cc1c[nH]cn1)[C@@H](C)O)[C@@H](C)O)C(C)C)C(=O)N[C@@H](C)C(=O)N[C@@H](Cc1c[nH]c2ccccc12)C(=O)N[C@@H](CC(C)C)C(=O)N[C@H](C(=O)N[C@@H](CCCNC(=N)N)C(=O)NCC(=O)N[C@@H](CCCNC(=N)N)C(=O)N[C@@H](CCCCNC(=O)COCCOCCNC(=O)COCCOCCNC(=O)COCCOCCNC(=O)COCCOCCNC(=O)CN(CCCNC(=O)COCCOCCNC(=O)COCCOCCNC(=O)CC[C@H](NC(=O)[C@H]1CC[C@H](CNC(=O)CCCCCCCCCCCCCCCCCCC(=O)O)CC1)C(=O)O)CCCNC(=O)COCCOCCNC(=O)COCCOCCNC(=O)CC[C@H](NC(=O)[C@H]1CC[C@H](CNC(=O)CCCCCCCCCCCCCCCCCCC(=O)O)CC1)C(=O)O)C(=O)O)C(C)C` [Example 12]: in data set [1], the half-maximal effective concentration (EC50) was determined as 0.02 nM. For the same molecule, the figures for the concentration for half-maximal inhibition (IC50) in data set [2] (setting [6]) and in data set [2] (setting [5]) were 0.51 nM and 25 nM, respectively. Further, the half-life in data set [4] (2 nmol/kg) is 137 h.

The molecule `CC[C@H](C)[C@H](NC(=O)[C@H](Cc1ccccc1)NC(=O)[C@H](CCC(=O)O)NC(=O)[C@H](CCCNC(=N)N)NC(=O)[C@H](C)NC(=O)[C@H](C)NC(=O)[C@H](CCC(N)=O)NC(=O)[C@H](CCC(=O)O)NC(=O)[C@H](CCC(=O)O)NC(=O)[C@H](CC(C)C)NC(=O)[C@H](Cc1ccc(O)cc1)NC(=O)[C@H](CO)NC(=O)[C@H](CO)NC(=O)[C@@H](NC(=O)[C@H](CC(=O)O)NC(=O)[C@H](CO)NC(=O)[C@@H](NC(=O)[C@H](Cc1ccccc1)NC(=O)[C@@H](NC(=O)CNC(=O)[C@H](CCC(=O)O)NC(=O)C(C)(C)NC(=O)[C@@H](N)Cc1c[nH]cn1)[C@@H](C)O)[C@@H](C)O)C(C)C)C(=O)N[C@@H](C)C(=O)N[C@@H](Cc1c[nH]c2ccccc12)C(=O)N[C@@H](CC(C)C)C(=O)N[C@H](C(=O)N[C@@H](CCCNC(=N)N)C(=O)NCC(=O)N[C@@H](CCCNC(=N)N)C(=O)N[C@@H](CCCCNC(=O)COCCOCCNC(=O)COCCOCCNC(=O)COCCOCCNC(=O)COCCOCCNC(=O)CN(CCCNC(=O)CC[C@H](NC(=O)[C@H]1CC[C@H](CNC(=O)CCCCCCCCCCCCCCCCCCC(=O)O)CC1)C(=O)O)CCCNC(=O)CC[C@H](NC(=O)[C@H]1CC[C@H](CNC(=O)CCCCCCCCCCCCCCCCCCC(=O)O)CC1)C(=O)O)C(=O)O)C(C)C` [Example 27, N{Epsilon-37}-[2-[2-[2-[[2-[2-[2-[[2-[2-[2-[[2-[2-[2-[[2-[bis[3-[[(4S)-4-carboxy-4-[[4-[(19-carboxynonadecanoylamino)methyl]cyclohexanecarbonyl]amino]butanoyl]amino]propyl]amino]acetyl]amino]ethoxy]ethoxy]acetyl]amino]ethoxy]ethoxy]acetyl]amino]ethoxy]ethoxy]acetyl]amino]ethoxy]ethoxy]acetyl]-[Aib8,Glu22,Arg26,Arg34,Lys37]-GLP-1-(7-37)-peptide] gave a half-life in data set [4] (2 nmol/kg) of 138 h.
